Experimental data taken from US20050277696A1, “Novel use of cytotoxic drugs for treatment and prophylasxis of aging diseases by reversing the loss of elasticity of epithelial cells due to aging” (priority 2004, published 2005).

Tested on: human epithelial cells
Assay: clonal growth of human epithelial cells in cell culture over 7 days (surviving colonies counted)
Assay type: cell-based
Excerpt: Therefore, before the comparison of results based on rigidity of older cells against younger and more elastic cells, the proper concentration of the drug must be found. Dissolved in an appropriate solvent (for example, dimethylsulfoxide for Cytochalasin D, B and Latrunculin A, B, Jasplakinolide), the drug should be added to the cell culture medium. […] The amount of the drug should not be in such a high concentration that would result in the destruction of the cells. As an example, when the treatment of the old cells is done with Cytochalasin B, a cell permeable fungal toxin which binds to the barbed end of actin filaments and results in the inhibition of both the association and dissociation of its subunits, a 4 μg/mL solution of Cytochalasin B in the medium was optimal to treat viable cells for 12 hours. This concentration was determined by performing experiments to measure clonal growth of human epithelial cells in cell culture over 7 days in different concentrations of the drug. The number of surviving colonies of cells was counted to determine the range of concentrations that were non-toxic or non-cytostatic. This range was from 1.0 to 10 μg/mL. The determination of the appropriate concentration of a cytotoxic drug is dependent upon the particular drug of choice, but one skilled in the art would recognize methods to determine the appropriate drug concentration.

C=C1[C@@H](C)[C@H]2[C@H](Cc3ccccc3)NC(=O)[C@]23OC(=O)/C=C/[C@H](O)CCC[C@@H](C)C/C=C/[C@H]3[C@@H]1O [Cytochalasin B]
range of concentrations that were non-toxic or non-cytostatic (clonal growth over 7 days in different concentrations of the drug, number of surviving colonies counted): 1.0 to 10 µg/mL
optimal concentration in the medium to treat viable cells (old cells, treatment for 12 hours, solution in the medium): 4 µg/mL
